Here are results for one compound from article PMC5339874, “Fluorene-9-bisphenol is anti-oestrogenic and may cause adverse pregnancy outcomes in mice” (Nature Communications, 2017).

In this experiment the target is T1, human oestrogen receptor β (Homo sapiens, UniProt Q92731).
T1 construct: expressed in transfected cells; host or cells: JEG-3 human choriocarcinoma cells
Kind of experiment: Dual-luciferase reporter assay, full-length ERβ and ERE in JEG-3 cells. Format: cell-based. Here is the method:
Dual-luciferase reporter assays were carried out primarily according to the method described in a previous study. In short, full-length sequences of human oestrogen receptor α and β were amplified by RT-PCR using mRNA from MCF-7 (Supplementary Table 3), and inserted into a pSVSPORT1 (Invitrogen); the resulting constructs were termed pSVhERα and pSVhERβ. A reporter plasmid containing ERE was constructed by inserting four tandem repeats of an ERE of Xenopus laevis vitellogenin A2 into a pGL4.23 vector (Promega), and was termed pGL4-ERE-luc. […] The Renilla LUC control reporter construct pGL4.74-TK was purchased from Promega (Madison, WI). Human choriocarcinoma JEG-3 cells (ATCC No. HTB-36) were obtained from the American Type Culture Collection (ATCC; Manassas, VA) and were cultured in minimal essential medium (MEM, Invitrogen, Carlsbad, CA) containing 2 mM L-glutamine, 0.1 mM minimal essential medium nonessential amino acid solution (Invitrogen/Thermo Fisher Scientific, Grand Island, NY), and 10% fetal calf serum (FCS) at 37 °C in a humidified atmosphere containing 5% CO2. The cells (3 × 10^4 cells per well) were seeded in 24-well plates 24 h before transfection. The cells were transfected with pGL4-ERE-luc (5 ng per well), pGL 4.74-TK (0.2 ng per well) and either pSVhERα (5 ng per well) or pSVhERβ (5 ng per well) using Lipofectamine reagent (Invitrogen). At 24 h after transfection, the compounds in DMSO were added to the cultures at a volume ratio (v/v) of 0.1%. The cells were continuously cultured in medium supplemented with 1% charcoal-stripped FCS for another 24 h and then harvested, and cell extracts were assayed for firefly luciferase activity. The assays were performed in quadruplicate, and the results were expressed as the fold induction of the control after normalization against Renilla luciferase activity. Sigmoidal dose-effect curves were calculated using the GraphPad Prism 4 software. The IC50 values were calculated on the basis of the sigmoidal dose-effect curves. […]
For orientation: A reporter such as luciferase makes a cellular process visible.

Structures are written as SMILES. Read-outs that look alike come from different tables or passages of the source.

T1 sequence (Q92731 whole entry): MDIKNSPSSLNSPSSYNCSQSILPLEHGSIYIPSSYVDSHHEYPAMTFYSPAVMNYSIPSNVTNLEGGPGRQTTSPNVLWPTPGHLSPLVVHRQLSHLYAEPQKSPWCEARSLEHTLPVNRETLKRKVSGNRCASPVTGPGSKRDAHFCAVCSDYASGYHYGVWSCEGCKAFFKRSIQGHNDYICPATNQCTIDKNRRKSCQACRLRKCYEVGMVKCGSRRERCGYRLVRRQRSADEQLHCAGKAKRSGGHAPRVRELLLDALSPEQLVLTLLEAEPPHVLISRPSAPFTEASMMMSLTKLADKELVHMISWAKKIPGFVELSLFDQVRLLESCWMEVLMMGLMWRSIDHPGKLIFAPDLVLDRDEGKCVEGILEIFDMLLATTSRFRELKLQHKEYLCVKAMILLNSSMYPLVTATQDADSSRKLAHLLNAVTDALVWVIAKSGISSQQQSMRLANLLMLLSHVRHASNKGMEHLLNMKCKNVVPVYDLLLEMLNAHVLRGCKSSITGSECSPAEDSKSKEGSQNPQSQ

As for `Oc1ccc(C2(c3ccc(O)cc3)c3ccccc3-c3ccccc32)cc1` [BHPF, 9,9-bis(4-hydroxyphenyl)-fluorene], the IC50 is, setting by setting: (coexisted with 1 × 10^−9 M E2, read-out: IC50, anti-oestrogenic activity) 75.3 nM; (vs 1 nM E2, read-out: IC50 converted to mass concentration (converted)) 75.3 nM. For the same compound, the oestrogenic activity entry (compound alone) is given as “no oestrogenic activity”.
